In ChEMBL document CHEMBL1697781, “Assessment of the health effects of chemicals in humans: II. Construction of an adverse effects database for QSAR modeling” (Curr Drug Discov Technol, 2004):

How the values were obtained:
Conditions in all cases: human; call rule not given here
[1] = system: Hepatotoxicity; assay: FDA HLAED, serum glutamic pyruvic transaminase (SGPT) increase
[2] = system: Hepatotoxicity; assay: FDA HLAED, serum glutamic oxaloacetic transaminase (SGOT) increase
[3] = system: Hepatotoxicity; assay: FDA HLAED, alkaline phosphatase increase
[4] = system: Hepatotoxicity; assay: FDA HLAED, gamma-glutamyl transferase (GGT) increase
[5] = system: Hepatotoxicity; assay: FDA HLAED, liver enzyme composite activity
[6] = system: Hepatotoxicity; assay: FDA HLAED, lactate dehydrogenase (LDH) increase
Throughout, for GGT Increase - Index Value: reference of the scale not given here.
Throughout, for LDH Increase - Index Value: reference of the scale not given here.

O=C(c1ccccc1)c1ccc2n1CCC2C(=O)O (stereo unspecified) [KETOROLAC]
SGPT Increase - Activity Score [1]: Inactive | SGPT Increase - Index Value [1]: 0.6 | SGPT Increase - Number of Reports [1]: >= 4 | SGOT Increase - Activity Score [2]: Inactive | SGOT Increase - Index Value [2]: 0.9 | SGOT Increase - Number of Reports [2]: >= 4 | Alkaline Phosphatase Increase - Activity Score [3]: Inactive | Alkaline Phosphatase Increase - Index Value [3]: 1.4 | Alkaline Phosphatase Increase - Number of Reports [3]: >= 4 | GGT Increase - Activity Score [4]: Inactive | GGT Increase - Index Value [4]: 0.5 | GGT Increase - Number of Reports [4]: < 4 | Composite Activity - Active [5]: 0 | Composite Activity - Marginal [5]: 0 | Composite Activity - Score [5]: Inactive | LDH Increase - Activity Score [6]: Inactive | LDH Increase - Index Value [6]: 0.5 | LDH Increase - Number of Reports [6]: >= 4

CC(CCc1ccccc1)NCC(O)c1ccc(O)c(C(N)=O)c1 (stereo unspecified) [LABETALOL]
SGPT Increase - Activity Score [1]: Inactive | SGPT Increase - Index Value [1]: 1.1 | SGPT Increase - Number of Reports [1]: >= 4 | SGOT Increase - Activity Score [2]: Marginally Active | SGOT Increase - Index Value [2]: 3 | SGOT Increase - Number of Reports [2]: >= 4 | Alkaline Phosphatase Increase - Activity Score [3]: Inactive | Alkaline Phosphatase Increase - Index Value [3]: 0.9 | Alkaline Phosphatase Increase - Number of Reports [3]: >= 4 | GGT Increase - Activity Score [4]: Inactive | GGT Increase - Index Value [4]: 0 | GGT Increase - Number of Reports [4]: < 4 | Composite Activity - Active [5]: 0 | Composite Activity - Marginal [5]: 1 | Composite Activity - Score [5]: Inactive | LDH Increase - Activity Score [6]: Inactive | LDH Increase - Index Value [6]: 0.4 | LDH Increase - Number of Reports [6]: < 4

Nc1ccn([C@@H]2CS[C@H](CO)O2)c(=O)n1 [LAMIVUDINE]
SGPT Increase - Activity Score [1]: Active | SGPT Increase - Index Value [1]: 9 | SGPT Increase - Number of Reports [1]: >= 4 | SGOT Increase - Activity Score [2]: Active | SGOT Increase - Index Value [2]: 8.7 | SGOT Increase - Number of Reports [2]: >= 4 | Alkaline Phosphatase Increase - Activity Score [3]: Inactive | Alkaline Phosphatase Increase - Index Value [3]: 2.1 | Alkaline Phosphatase Increase - Number of Reports [3]: >= 4 | GGT Increase - Activity Score [4]: Inactive | GGT Increase - Index Value [4]: 1.7 | GGT Increase - Number of Reports [4]: >= 4 | Composite Activity - Active [5]: 2 | Composite Activity - Marginal [5]: 0 | Composite Activity - Score [5]: Active | LDH Increase - Activity Score [6]: Inactive | LDH Increase - Index Value [6]: 2.1 | LDH Increase - Number of Reports [6]: >= 4

Nc1nnc(-c2cccc(Cl)c2Cl)c(N)n1 [LAMOTRIGINE]
SGPT Increase - Activity Score [1]: Active | SGPT Increase - Index Value [1]: 4 | SGPT Increase - Number of Reports [1]: >= 4 | SGOT Increase - Activity Score [2]: Active | SGOT Increase - Index Value [2]: 4 | SGOT Increase - Number of Reports [2]: >= 4 | Alkaline Phosphatase Increase - Activity Score [3]: Inactive | Alkaline Phosphatase Increase - Index Value [3]: 0.5 | Alkaline Phosphatase Increase - Number of Reports [3]: < 4 | GGT Increase - Activity Score [4]: Inactive | GGT Increase - Index Value [4]: 2 | GGT Increase - Number of Reports [4]: < 4 | Composite Activity - Active [5]: 2 | Composite Activity - Marginal [5]: 1 | Composite Activity - Score [5]: Active | LDH Increase - Activity Score [6]: Marginally Active | LDH Increase - Index Value [6]: 3 | LDH Increase - Number of Reports [6]: >= 4

Cc1c(OCC(F)(F)F)ccnc1C[S+]([O-])c1nc2ccccc2[nH]1 (stereo unspecified) [LANSOPRAZOLE]
SGPT Increase - Activity Score [1]: Inactive | SGPT Increase - Index Value [1]: 1.2 | SGPT Increase - Number of Reports [1]: >= 4 | SGOT Increase - Activity Score [2]: Inactive | SGOT Increase - Index Value [2]: 0.9 | SGOT Increase - Number of Reports [2]: >= 4 | Alkaline Phosphatase Increase - Activity Score [3]: Inactive | Alkaline Phosphatase Increase - Index Value [3]: 0.5 | Alkaline Phosphatase Increase - Number of Reports [3]: < 4 | GGT Increase - Activity Score [4]: Inactive | GGT Increase - Index Value [4]: 1.1 | GGT Increase - Number of Reports [4]: >= 4 | Composite Activity - Active [5]: 0 | Composite Activity - Marginal [5]: 0 | Composite Activity - Score [5]: Inactive | LDH Increase - Activity Score [6]: Inactive | LDH Increase - Index Value [6]: 0.5 | LDH Increase - Number of Reports [6]: < 4

CC(C)OC(=O)CCC/C=C\C[C@@H]1[C@@H](CC[C@@H](O)CCc2ccccc2)[C@H](O)C[C@@H]1O [LATANOPROST]
SGPT Increase - Activity Score [1]: Inactive | SGPT Increase - Index Value [1]: 0 | SGPT Increase - Number of Reports [1]: < 4 | SGOT Increase - Activity Score [2]: Inactive | SGOT Increase - Index Value [2]: 0.2 | SGOT Increase - Number of Reports [2]: < 4 | Alkaline Phosphatase Increase - Activity Score [3]: Inactive | Alkaline Phosphatase Increase - Index Value [3]: 0.2 | Alkaline Phosphatase Increase - Number of Reports [3]: < 4 | GGT Increase - Activity Score [4]: Inactive | GGT Increase - Index Value [4]: 0 | GGT Increase - Number of Reports [4]: < 4 | Composite Activity - Active [5]: 0 | Composite Activity - Marginal [5]: 0 | Composite Activity - Score [5]: Inactive | LDH Increase - Activity Score [6]: Inactive | LDH Increase - Index Value [6]: 0 | LDH Increase - Number of Reports [6]: < 4

c1ccc([C@H]2CN3CCSC3=N2)cc1 [LEVAMISOLE]
SGPT Increase - Activity Score [1]: Inactive | SGPT Increase - Index Value [1]: 8.8 | SGPT Increase - Number of Reports [1]: < 4 | SGOT Increase - Activity Score [2]: Active | SGOT Increase - Index Value [2]: 26.5 | SGOT Increase - Number of Reports [2]: >= 4 | Alkaline Phosphatase Increase - Activity Score [3]: Active | Alkaline Phosphatase Increase - Index Value [3]: 38.3 | Alkaline Phosphatase Increase - Number of Reports [3]: >= 4 | GGT Increase - Activity Score [4]: Inactive | GGT Increase - Index Value [4]: 5.9 | GGT Increase - Number of Reports [4]: < 4 | Composite Activity - Active ([5]; Liver): 3 | Composite Activity - Marginal ([5]; Liver): 0 | Composite Activity - Score ([5]; Liver): Active | LDH Increase - Activity Score [6]: Active | LDH Increase - Index Value [6]: 29.4 | LDH Increase - Number of Reports [6]: >= 4

CC(C)(C)NC[C@H](O)COc1cccc2c1CCCC2=O [LEVOBUNOLOL]
SGPT Increase - Activity Score [1]: Inactive | SGPT Increase - Index Value [1]: 0 | SGPT Increase - Number of Reports [1]: < 4 | SGOT Increase - Activity Score [2]: Inactive | SGOT Increase - Index Value [2]: 0 | SGOT Increase - Number of Reports [2]: < 4 | Alkaline Phosphatase Increase - Activity Score [3]: Inactive | Alkaline Phosphatase Increase - Index Value [3]: 0 | Alkaline Phosphatase Increase - Number of Reports [3]: < 4 | GGT Increase - Activity Score [4]: Inactive | GGT Increase - Index Value [4]: 0 | GGT Increase - Number of Reports [4]: < 4 | Composite Activity - Active [5]: 0 | Composite Activity - Marginal [5]: 0 | Composite Activity - Score [5]: Inactive | LDH Increase - Activity Score [6]: Inactive | LDH Increase - Index Value [6]: 0 | LDH Increase - Number of Reports [6]: < 4

C[C@@H]1CN([C@H]2CC[C@](C#N)(c3ccc(F)cc3)CC2)CC[C@]1(C(=O)O)c1ccccc1 [LEVOCABASTINE]
SGPT Increase - Activity Score [1]: Inactive | SGPT Increase - Index Value [1]: 0 | SGPT Increase - Number of Reports [1]: < 4 | SGOT Increase - Activity Score [2]: Inactive | SGOT Increase - Index Value [2]: 0 | SGOT Increase - Number of Reports [2]: < 4 | Alkaline Phosphatase Increase - Activity Score [3]: Inactive | Alkaline Phosphatase Increase - Index Value [3]: 0 | Alkaline Phosphatase Increase - Number of Reports [3]: < 4 | GGT Increase - Activity Score [4]: Inactive | GGT Increase - Index Value [4]: 0 | GGT Increase - Number of Reports [4]: < 4 | Composite Activity - Active [5]: 0 | Composite Activity - Marginal [5]: 0 | Composite Activity - Score [5]: Inactive | LDH Increase - Activity Score [6]: Inactive | LDH Increase - Index Value [6]: 0 | LDH Increase - Number of Reports [6]: < 4

C[N+](C)(C)C[C@H](O)CC(=O)[O-] [LEVOCARNITINE]
SGPT Increase - Activity Score [1]: Inactive | SGPT Increase - Index Value [1]: 0 | SGPT Increase - Number of Reports [1]: < 4 | SGOT Increase - Activity Score [2]: Inactive | SGOT Increase - Index Value [2]: 0 | SGOT Increase - Number of Reports [2]: < 4 | Alkaline Phosphatase Increase - Activity Score [3]: Inactive | Alkaline Phosphatase Increase - Index Value [3]: 0 | Alkaline Phosphatase Increase - Number of Reports [3]: < 4 | GGT Increase - Activity Score [4]: Inactive | GGT Increase - Index Value [4]: 0 | GGT Increase - Number of Reports [4]: < 4 | Composite Activity - Active [5]: 0 | Composite Activity - Marginal [5]: 0 | Composite Activity - Score [5]: Inactive | LDH Increase - Activity Score [6]: Inactive | LDH Increase - Index Value [6]: 0 | LDH Increase - Number of Reports [6]: < 4

C[C@H]1COc2c(N3CCN(C)CC3)c(F)cc3c(=O)c(C(=O)O)cn1c23.C[C@H]1COc2c(N3CCN(C)CC3)c(F)cc3c(=O)c(C(=O)O)cn1c23.O [LEVOFLOXACIN]
SGPT Increase - Activity Score [1]: Inactive | SGPT Increase - Index Value [1]: 0 | SGPT Increase - Number of Reports [1]: < 4 | SGOT Increase - Activity Score [2]: Inactive | SGOT Increase - Index Value [2]: 0 | SGOT Increase - Number of Reports [2]: < 4 | Alkaline Phosphatase Increase - Activity Score [3]: Inactive | Alkaline Phosphatase Increase - Index Value [3]: 0 | Alkaline Phosphatase Increase - Number of Reports [3]: < 4 | GGT Increase - Activity Score [4]: Inactive | GGT Increase - Index Value [4]: 0 | GGT Increase - Number of Reports [4]: < 4 | Composite Activity - Active [5]: 0 | Composite Activity - Marginal [5]: 0 | Composite Activity - Score [5]: Inactive | LDH Increase - Activity Score [6]: Inactive | LDH Increase - Index Value [6]: 0 | LDH Increase - Number of Reports [6]: < 4

C#C[C@]1(O)CC[C@H]2[C@@H]3CCC4=CC(=O)CC[C@@H]4[C@H]3CC[C@@]21CC [LEVONORGESTREL]
SGPT Increase - Activity Score [1]: Active | SGPT Increase - Index Value [1]: 22.7 | SGPT Increase - Number of Reports [1]: >= 4 | SGOT Increase - Activity Score [2]: Active | SGOT Increase - Index Value [2]: 39.7 | SGOT Increase - Number of Reports [2]: >= 4 | Alkaline Phosphatase Increase - Activity Score [3]: Active | Alkaline Phosphatase Increase - Index Value [3]: 34 | Alkaline Phosphatase Increase - Number of Reports [3]: >= 4 | GGT Increase - Activity Score [4]: Active | GGT Increase - Index Value [4]: 34 | GGT Increase - Number of Reports [4]: >= 4 | Composite Activity - Active ([5]; Liver): 5 | Composite Activity - Marginal ([5]; Liver): 0 | Composite Activity - Score ([5]; Liver): Active | LDH Increase - Activity Score [6]: Active | LDH Increase - Index Value [6]: 28.3 | LDH Increase - Number of Reports [6]: >= 4
